Reference: ChEMBL document CHEMBL1201862, “PubChem BioAssay data set” (2004)
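Following 48 hours of exposure in 96-well plates, responses at five concentrations were used to interpolate endpoints linearly. Here, GI50 denotes the concentration required for 50% inhibition of growth.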 Calls of active or inactive are those of the source. Rule as the data show it: active = GI50 up to about 1.1 µM and inactive = higher.

Experiments:
Assay in all cases: NCI anticancer screen, dose series, 48 h
MCF7 = tested on: MCF7
EKVX = tested on: EKVX
DU-145 = tested on: DU-145
MOLT-4 = tested on: MOLT-4
OVCAR-8 = tested on: OVCAR-8
SN12C = tested on: SN12C
SW-620 = tested on: SW-620
MDA-MB-231 = tested on: MDA-MB-231
MDA-MB-435 = tested on: MDA-MB-435
UACC-257 = tested on: UACC-257
IGROV-1 = tested on: IGROV-1
SK-MEL-5 = tested on: SK-MEL-5
A549 = tested on: A549
HCC 2998 = tested on: HCC 2998
SNB-75 = tested on: SNB-75
LOX IMVI = tested on: LOX IMVI
HL-60 = tested on: HL-60
SF-268 = tested on: SF-268
MDA-N = tested on: MDA-N

Compound | GI50 (MCF7) | GI50 (EKVX) | GI50 (DU-145) | GI50 (MOLT-4) | GI50 (OVCAR-8) | GI50 (SN12C) | GI50 (SW-620) | GI50 (MDA-MB-231) | GI50 (MDA-MB-435) | GI50 (UACC-257) | GI50 (IGROV-1) | GI50 (SK-MEL-5) | GI50 (A549) | GI50 (HCC 2998) | GI50 (SNB-75) | GI50 (LOX IMVI) | GI50 (HL-60) | GI50 (SF-268) | GI50 (MDA-N)
C=C1c2nc3ccccc3n2C=C(c2ccccc2)N1c1ccc(C)cc1 | 29.5 µM (inactive) | > 100 µM (inactive) | > 100 µM (inactive) | 20.6 µM (inactive) | 48.5 µM (inactive) | 85.5 µM (inactive) | 71.1 µM (inactive) | > 100 µM (inactive) | 33.2 µM (inactive) | 80.4 µM (inactive) | > 100 µM (inactive) | 25.7 µM (inactive) | > 100 µM (inactive) | 9.31 µM (inactive) | > 100 µM (inactive) | 33.6 µM (inactive) |  |  | 
O=C(NC1CCN(Cc2ccccc2)CC1)c1cccc(I)c1 |  | 45.2 µM (inactive) | 72.3 µM (inactive) | 13.9 µM (inactive) | 39.2 µM (inactive) | 60.5 µM (inactive) | 17.1 µM (inactive) | 17 µM (inactive) | 17.3 µM (inactive) | 16.4 µM (inactive) | 39 µM (inactive) | 16.9 µM (inactive) | 31.9 µM (inactive) |  |  | 19.6 µM (inactive) | 34.4 µM (inactive) | 50.9 µM (inactive) | 
Cc1cnc(Cl)nc1C(C#N)c1nc2ccccc2s1 (centres undefined) |  | 32.8 µM (inactive) | 31.8 µM (inactive) | 63.5 µM (inactive) | 25.7 µM (inactive) | 14.1 µM (inactive) | 33.6 µM (inactive) | 40.9 µM (inactive) | 22.5 µM (inactive) | 31.7 µM (inactive) | 21.6 µM (inactive) | 5.57 µM (inactive) | 29 µM (inactive) |  | 18.8 µM (inactive) | 18.8 µM (inactive) |  | 15.7 µM (inactive) | 15 µM (inactive)
CN1CCN(c2ccncc2S(=O)(=O)N2CCN(C)CC2)CC1 | > 100 µM (inactive) | > 100 µM (inactive) | > 100 µM (inactive) |  | > 100 µM (inactive) |  | > 100 µM (inactive) | > 100 µM (inactive) | > 100 µM (inactive) | > 100 µM (inactive) | > 100 µM (inactive) | > 100 µM (inactive) | > 100 µM (inactive) |  | > 100 µM (inactive) | > 100 µM (inactive) |  | > 100 µM (inactive) | > 100 µM (inactive)
Oc1nc(S)nc2c1CN(CCCN1CCOCC1)CN2 | 34.7 µM (inactive) | > 100 µM (inactive) | 34.2 µM (inactive) | 28.2 µM (inactive) | 31 µM (inactive) | 46.7 µM (inactive) | 32 µM (inactive) | 26.7 µM (inactive) | 22.5 µM (inactive) | 40.2 µM (inactive) | 40.6 µM (inactive) | 31 µM (inactive) | 38.6 µM (inactive) | 21.9 µM (inactive) |  | 24.7 µM (inactive) |  | 23.1 µM (inactive) | 43.6 µM (inactive)
CC1=C(C(=O)Nc2cc(F)c(F)cc2F)C(c2cccc([N+](=O)[O-])c2)C(C(=O)Nc2ccccc2C(F)(F)F)=C(C)N1 (centres undefined) |  | 21.4 µM (inactive) |  | 12.5 µM (inactive) | 27 µM (inactive) | 19.8 µM (inactive) | 31 µM (inactive) |  |  | 23.4 µM (inactive) | 23.5 µM (inactive) | 22.1 µM (inactive) | 26.8 µM (inactive) | 20 µM (inactive) | 12.6 µM (inactive) | 17.9 µM (inactive) | 14.6 µM (inactive) | 18.7 µM (inactive) | 
CCCCCCCCCCCCCCCc1nnc(SCC(=O)O)[nH]1 |  | > 100 µM (inactive) |  | 11.7 µM (inactive) | 40.8 µM (inactive) | 71.9 µM (inactive) | 95.5 µM (inactive) |  |  | > 100 µM (inactive) | 36.1 µM (inactive) | > 100 µM (inactive) | 79.1 µM (inactive) | 43.9 µM (inactive) |  | 33.4 µM (inactive) | 34.8 µM (inactive) | 42 µM (inactive) | 
Nc1nonc1-c1noc(-c2nonc2N)[n+]1[O-] | 33.3 µM (inactive) | 30.8 µM (inactive) | > 100 µM (inactive) | 54.6 µM (inactive) |  | > 100 µM (inactive) | 27 µM (inactive) | > 100 µM (inactive) | 57 µM (inactive) | > 100 µM (inactive) | > 100 µM (inactive) | 32.1 µM (inactive) | 30.3 µM (inactive) | > 100 µM (inactive) |  | 63.2 µM (inactive) |  | > 100 µM (inactive) | 69.7 µM (inactive)
NS(=O)(=O)c1nnc(NS(=O)(=O)c2ccc([N+](=O)[O-])cc2)s1 | > 100 µM (inactive) | > 100 µM (inactive) | > 100 µM (inactive) | 26.3 µM (inactive) | > 100 µM (inactive) |  | > 100 µM (inactive) | > 100 µM (inactive) | > 100 µM (inactive) |  | > 100 µM (inactive) | 69.2 µM (inactive) | > 100 µM (inactive) | > 100 µM (inactive) | > 100 µM (inactive) | 30.4 µM (inactive) | > 100 µM (inactive) | > 100 µM (inactive) | 
CCOP1(=O)C=CC(Cl)=C(C)C1 (centres undefined) |  | 26.4 µM (inactive) |  | 3.64 µM (inactive) | 19.6 µM (inactive) | 11.7 µM (inactive) | 11.5 µM (inactive) |  |  | 15.5 µM (inactive) | 23.4 µM (inactive) | 17.7 µM (inactive) | 31.1 µM (inactive) | 15.9 µM (inactive) | 4.67 µM (inactive) | 19.2 µM (inactive) | 3.57 µM (inactive) | 22.1 µM (inactive) | 
CCOc1ccc(NCc2cc(OC)c(OC)c(OC)c2)cc1 | 0.435 µM (active) | 34.9 µM (inactive) | 2.57 µM (inactive) | 0.582 µM (active) |  |  | 0.35 µM (active) | 2.5 µM (inactive) |  | 20.9 µM (inactive) | 1.49 µM (inactive) | 0.506 µM (active) | 0.847 µM (active) | 0.771 µM (active) | 1.04 µM (active) | 0.643 µM (active) | 0.257 µM (active) | 2.29 µM (inactive) | 
COc1cc(S(=O)(=O)Nc2ccc(-c3csc(N4C(=O)C(C)SC4c4cccs4)n3)cc2)ccc1Cl (centres undefined) | > 100 µM (inactive) | 57.5 µM (inactive) | 20.7 µM (inactive) | 16 µM (inactive) | 32.4 µM (inactive) | 39.3 µM (inactive) | 34.4 µM (inactive) |  | 30 µM (inactive) |  | 29.1 µM (inactive) | 41.3 µM (inactive) |  |  |  | 5.27 µM (inactive) | 18.7 µM (inactive) | 22.5 µM (inactive) | 
O=[N+]([O-])/C(C(Cl)=C(Cl)Cl)=C(\Nc1cccc2ccccc12)Sc1ccccc1 | 12.6 µM (inactive) | 11.4 µM (inactive) | 13.2 µM (inactive) | > 100 µM (inactive) | 15.3 µM (inactive) | 20.2 µM (inactive) | 8.53 µM (inactive) | 11.3 µM (inactive) | 13.8 µM (inactive) | 14.8 µM (inactive) |  |  | 19.7 µM (inactive) | 17.8 µM (inactive) | 19.2 µM (inactive) |  |  | 12.9 µM (inactive) | 16.5 µM (inactive)
NC(CCCCNC(=O)OCc1ccccc1)C(=O)NC(CCCCNC(=O)OCc1ccccc1)C(=O)ON1C(=O)CCC1=O (centres undefined) | > 100 µM (inactive) | > 100 µM (inactive) |  | > 100 µM (inactive) | > 100 µM (inactive) | > 100 µM (inactive) | > 100 µM (inactive) | > 100 µM (inactive) |  | > 100 µM (inactive) | > 100 µM (inactive) | > 100 µM (inactive) | > 100 µM (inactive) | > 100 µM (inactive) | 27.2 µM (inactive) |  | > 100 µM (inactive) |  | > 100 µM (inactive)
CCOC(=O)Oc1cc2ccsc2c2c1c1ccccc1n2C(=O)OCC | 59 µM (inactive) | 60.7 µM (inactive) | 32.8 µM (inactive) | > 100 µM (inactive) | 87.7 µM (inactive) | 37.8 µM (inactive) | 94.8 µM (inactive) | 35.6 µM (inactive) | 68.9 µM (inactive) | 91 µM (inactive) | > 100 µM (inactive) | 63.7 µM (inactive) | 48.9 µM (inactive) |  | 27.1 µM (inactive) | > 100 µM (inactive) |  | 64 µM (inactive) | 31 µM (inactive)
COc1ccc(/C=C2\N=C(SC)N(CN3CCCCC3)C2=O)cc1 | > 100 µM (inactive) | > 100 µM (inactive) | > 100 µM (inactive) | > 100 µM (inactive) | > 100 µM (inactive) | > 100 µM (inactive) | > 100 µM (inactive) | > 100 µM (inactive) | > 100 µM (inactive) |  | > 100 µM (inactive) | > 100 µM (inactive) | > 100 µM (inactive) |  | > 100 µM (inactive) | > 100 µM (inactive) |  | > 100 µM (inactive) | > 100 µM (inactive)
CC(C)(C)C1=CC(=C2C=Cc3cc(O)ccc3O2)C=C(C(C)(C)C)C1=O | 1.07 µM (active) | 1.85 µM (inactive) | 1.45 µM (inactive) | 0.435 µM (active) | 1.7 µM (inactive) | 1.63 µM (inactive) | 1.38 µM (inactive) | 1.7 µM (inactive) | 1.5 µM (inactive) | 1.57 µM (inactive) | 1.59 µM (inactive) | 1.58 µM (inactive) | 1.5 µM (inactive) | 1.26 µM (inactive) | 1.73 µM (inactive) | 1.56 µM (inactive) | 1.08 µM (active) | 1.81 µM (inactive) | 
COc1ccc(OC)c([N+](=O)[O-])c1-c1nc2sc(Cl)cn2c1/C=N/N=C(N)N | 9.89 µM (inactive) | 25.6 µM (inactive) | 21.8 µM (inactive) | 4.9 µM (inactive) | 19.2 µM (inactive) | 17.3 µM (inactive) | 20.2 µM (inactive) | 15.1 µM (inactive) | 17.5 µM (inactive) | 19.3 µM (inactive) | 12.9 µM (inactive) | 14.4 µM (inactive) | 23.2 µM (inactive) | 12.7 µM (inactive) | 10.1 µM (inactive) | 25 µM (inactive) | 11.2 µM (inactive) | 20.8 µM (inactive) | 
